Columns and labels:
P. falciparum = assay: EC50 listed in S2 Table Metabolomics (used to set the concentration tested); assay type: cell-based; settings: Plasmodium falciparum; EC50 used for Factor_XEC50 in metabolomics; read-out: EC50_nM
[1] = tested on: P. falciparum 3D7 trophozoites; assay: Metabolomic fingerprint profiling LC-MS; assay type: cell-based, Plasmodium falciparum; design: UDP-D-glucose / ADP-D-glucose: unit not given here; settings: for Acetyllysine / N-acetyl-L-ornithine / N-carbamoyl-L-aspartate / NADPH / dAMP / dCMP / dTDP / dTMP / dTTP / dihydroorotate / orotate / DLH / DLS/SDL/SID / PD / PEE / PVNF / 3-phosphoglycerate / ADP-D-glucose / ATP / CDP / D-sedoheptulose-1/7-phosphate / FAD / GMP / NAD+ / NADP+ / Octoluse Bisphosphate / Pyroglutamic acid / UDP-D-glucose / UDP-D-glucuronate / UDP-N-acetyl-glucosamine / UDP / UMP / UTP / a-ketoglutarate / citrate/isocitrate / cytidine / dATP / dGMP/AMP / fumarate / glucose-1/6-phosphate / glycerate / guanine / guanosine / hypoxanthine / indole / inosine / nicotinate / ornithine / phosphoenolpyruvate / pyruvate / ribose-phosphate / sarcosine/alanine / sn-glycerol-3-phosphate / succinate/methylmalonic acid / uridine / xanthosine: S2 Table Metabolomics; for Acetyllysine: metabolite Acetyllysine; for N-acetyl-L-ornithine: metabolite N-acetyl-L-ornithine; for N-carbamoyl-L-aspartate: metabolite N-carbamoyl-L-aspartate; for NADPH: metabolite NADPH; for dAMP: metabolite dAMP; for dCMP: metabolite dCMP; for dTDP: metabolite dTDP; for dTMP: metabolite dTMP; for dTTP: metabolite dTTP; for dihydroorotate: metabolite dihydroorotate; for orotate: metabolite orotate; for DLH: peptide DLH; for DLS/SDL/SID: peptide DLS/SDL/SID; for PD: peptide PD; for PEE: peptide PEE; for PVNF: peptide PVNF; for 3-phosphoglycerate: metabolite 3-phosphoglycerate; for ADP-D-glucose: metabolite ADP-D-glucose; for ATP: metabolite ATP; for CDP: metabolite CDP; for CDP / D-sedoheptulose-1/7-phosphate / GMP / Octoluse Bisphosphate / UDP / UMP / UTP / citrate/isocitrate / dGMP/AMP / fumarate / glucose-1/6-phosphate / glycerate / guanine / guanosine / inosine / pyruvate / sarcosine/alanine / succinate/methylmalonic acid / uridine / xanthosine: change in metabolite level after compound treatment; for D-sedoheptulose-1/7-phosphate: metabolite D-sedoheptulose-1/7-phosphate; for FAD: metabolite FAD; for GMP: metabolite GMP; for NAD+: metabolite NAD+; for NADP+: metabolite NADP+; for Octoluse Bisphosphate: metabolite Octoluse Bisphosphate; for Pyroglutamic acid: metabolite Pyroglutamic acid; for UDP-D-glucose: metabolite UDP-D-glucose; for UDP-D-glucuronate: metabolite UDP-D-glucuronate; for UDP-N-acetyl-glucosamine: metabolite UDP-N-acetyl-glucosamine; for UDP: metabolite UDP; for UMP: metabolite UMP; for UTP: metabolite UTP; for a-ketoglutarate: metabolite a-ketoglutarate; for citrate/isocitrate: metabolite citrate/isocitrate; for cytidine: metabolite cytidine; for dATP: metabolite dATP; for dGMP/AMP: metabolite dGMP/AMP; for fumarate: metabolite fumarate; for glucose-1/6-phosphate: metabolite glucose-1/6-phosphate; for glycerate: metabolite glycerate; for guanine: metabolite guanine; for guanosine: metabolite guanosine; for hypoxanthine: metabolite hypoxanthine; for indole: metabolite indole; for inosine: metabolite inosine; for 2_3-Diphosphoglyceric acid / 4-phosphopantothenate / 6-phospho-D-gluconate / FMN / IMP / Pyrophosphate / Sedoheptoluse bisphosphate / cyclic-AMP / glutathione disulfide / lactate / myo-inositol: metabolite level change after treatment; for nicotinate: metabolite nicotinate; for ornithine: metabolite ornithine; for phosphoenolpyruvate: metabolite phosphoenolpyruvate; for pyruvate: metabolite pyruvate; for ribose-phosphate: metabolite ribose-phosphate; for sarcosine/alanine: metabolite sarcosine/alanine; for sn-glycerol-3-phosphate: metabolite sn-glycerol-3-phosphate; for succinate/methylmalonic acid: metabolite succinate/methylmalonic acid; for uridine: metabolite uridine; for xanthosine: metabolite xanthosine

## CCOc1cc2c(cc1OCC)C(c1cc(OC)c(O)cc1Cl)NCC2 (stereo not drawn) [MMV008956]
P. falciparum
  EC50: 0.37 µM
[1]
  Acetyllysine: -0.8944
  N-acetyl-L-ornithine: -0.5916
  N-carbamoyl-L-aspartate: 0.571
  NADPH: 0.6672
  dAMP: 1.243
  dCMP: 4.619
  dTDP: 1.146
  dTMP: 1.439
  dTTP: 1.156
  dihydroorotate: 1.1855
  orotate: -0.3284
  DLH: -3.711
  DLS/SDL/SID: -0.5828
  PD: -0.4938
  PEE: -0.813
  PVNF: -0.872
  3-phosphoglycerate: 0.6004
  ADP-D-glucose: 0.1393
  ATP: 0.8747
  CDP: 1.061
  D-sedoheptulose-1/7-phosphate: 0.1684
  FAD: 0.6779
  GMP: -0.4979
  NAD+: 0.03875
  NADP+: 0.5626
  Octoluse Bisphosphate: 0.08662
  Pyroglutamic acid: 0.4321
  UDP-D-glucose: 0.1438
  UDP-D-glucuronate: 0.2178
  UDP-N-acetyl-glucosamine: 0.5265
  UDP: 1.214
  UMP: 0.03068
  UTP: 0.582
  a-ketoglutarate: -0.2514
  citrate/isocitrate: -0.7004
  cytidine: 0.5985
  dATP: 0.6577
  dGMP/AMP: 0.5512
  fumarate: -0.2713
  glucose-1/6-phosphate: 2.3505
  glycerate: 0.6776
  guanine: 0.5662
  guanosine: -1.286
  hypoxanthine: 0.3973
  indole: -0.009638
  inosine: -0.3408
  2_3-Diphosphoglyceric acid: 1.008
  4-phosphopantothenate: 0.721
  6-phospho-D-gluconate: 0.8262
  FMN: 0.6429
  IMP: 0.4913
  Pyrophosphate: -0.1587
  Sedoheptoluse bisphosphate: 0.3697
  cyclic-AMP: 0.7848
  glutathione disulfide: 0.5413
  lactate: 1.983
  myo-inositol: 3.051
  nicotinate: 0.3445
  ornithine: -0.06192
  phosphoenolpyruvate: 0.186
  pyruvate: 0.4759
  ribose-phosphate: 0.1544
  sarcosine/alanine: -0.3792
  sn-glycerol-3-phosphate: 0.3263
  succinate/methylmalonic acid: -0.2652
  uridine: 0.5193
  xanthosine: -1.526

## COc1cccc(NC(=O)[C@H](C(C)C)n2c(=O)[nH]c3ccccc3c2=O)c1 [MMV665878]
P. falciparum
  EC50: 0.139 µM
[1]
  Acetyllysine: -3.834
  N-acetyl-L-ornithine: -2.277
  N-carbamoyl-L-aspartate: -2.026
  NADPH: -0.665
  dAMP: 2.607
  dCMP: 1.538
  dTDP: 2.818
  dTMP: 4.246
  dTTP: 1.03
  dihydroorotate: -1.926
  orotate: 0.2146
  DLH: -4.819
  DLS/SDL/SID: -3.927
  PD: -1.32
  PEE: -2.783
  PVNF: -5.1424
  3-phosphoglycerate: -0.5747
  ADP-D-glucose: -0.6055
  ATP: -2.891
  CDP: 0.1584
  D-sedoheptulose-1/7-phosphate: -0.5795
  FAD: -1.328
  GMP: -2.538
  NAD+: 0.9896
  NADP+: -0.2932
  Octoluse Bisphosphate: -2.487
  Pyroglutamic acid: -0.4358
  UDP-D-glucose: -0.03487
  UDP-D-glucuronate: -0.6105
  UDP-N-acetyl-glucosamine: 0.07778
  UDP: -0.1367
  UMP: 0.1216
  UTP: -1.546
  a-ketoglutarate: -0.5207
  citrate/isocitrate: -1.159
  cytidine: 0.1724
  dATP: -1.5606
  dGMP/AMP: -1.273
  fumarate: 0.3725
  glucose-1/6-phosphate: -0.9191
  glycerate: 0.3692
  guanine: -0.09985
  guanosine: -0.2889
  hypoxanthine: -0.3925
  indole: -0.3292
  inosine: -0.04266
  2_3-Diphosphoglyceric acid: -1.256
  4-phosphopantothenate: -0.4545
  6-phospho-D-gluconate: -0.4297
  FMN: -0.3548
  IMP: -0.5176
  Pyrophosphate: -1.335
  Sedoheptoluse bisphosphate: -0.9263
  cyclic-AMP: -1.127
  glutathione disulfide: -0.2446
  lactate: -1.397
  myo-inositol: -0.3766
  nicotinate: 0.2929
  ornithine: 0.191
  phosphoenolpyruvate: -0.242
  pyruvate: -1.851
  ribose-phosphate: -0.6091
  sarcosine/alanine: -1.666
  sn-glycerol-3-phosphate: 0.02823
  succinate/methylmalonic acid: 0.3592
  uridine: 0.5173
  xanthosine: -1.769

## CCOC(=O)c1cnc2ccc(CC)cc2c1O [MMV007116]
P. falciparum
  EC50: 0.351 µM
[1]
  Acetyllysine: -0.1012
  N-acetyl-L-ornithine: 0.0981
  N-carbamoyl-L-aspartate: 2.971
  NADPH: -0.5029
  dAMP: -0.4219
  dCMP: 0.4317
  dTDP: -1.171
  dTMP: -0.8513
  dTTP: -0.7029
  dihydroorotate: 3.788
  orotate: -1.509
  DLH: 0.2963
  DLS/SDL/SID: 0.1623
  PD: 0.3262
  PEE: 0.1615
  PVNF: 0.2601
  3-phosphoglycerate: -0.1794
  ADP-D-glucose: 0.1742
  ATP: 0.4661
  CDP: -0.7049
  D-sedoheptulose-1/7-phosphate: -0.06275
  FAD: 0.2601
  GMP: -0.15
  NAD+: 0.1229
  NADP+: 0.2138
  Octoluse Bisphosphate: 0.1604
  Pyroglutamic acid: 0.5147
  UDP-D-glucose: 0.04103
  UDP-D-glucuronate: 0.1753
  UDP-N-acetyl-glucosamine: -0.1032
  UDP: -1.173
  UMP: -0.7684
  UTP: -0.9344
  a-ketoglutarate: -0.7057
  citrate/isocitrate: -0.7167
  cytidine: 0.3209
  dATP: 0.325
  dGMP/AMP: -0.3675
  fumarate: 0.4728
  glucose-1/6-phosphate: 0.07021
  glycerate: -0.09904
  guanine: -0.05466
  guanosine: -0.14
  hypoxanthine: -0.2065
  indole: -0.3037
  inosine: -0.2408
  2_3-Diphosphoglyceric acid: 0.3408
  4-phosphopantothenate: -0.2638
  6-phospho-D-gluconate: 0.07683
  FMN: -0.08712
  IMP: -0.2111
  Pyrophosphate: 0.42
  Sedoheptoluse bisphosphate: 0.05124
  cyclic-AMP: 0.01532
  glutathione disulfide: 0.02122
  lactate: -0.5604
  myo-inositol: -0.5893
  nicotinate: -0.6598
  ornithine: -0.07172
  phosphoenolpyruvate: -0.09558
  pyruvate: -0.6031
  ribose-phosphate: 0.2426
  sarcosine/alanine: -0.04206
  sn-glycerol-3-phosphate: 0.1096
  succinate/methylmalonic acid: 0.07837
  uridine: -1.178
  xanthosine: 0.04101

— paper PMC4965013, “Open Source Drug Discovery with the Malaria Box Compound Collection for Neglected Diseases and Beyond” (PLoS Pathogens, 2016)
